# Experiments:
# [1] = biological target: influenza A PB2long (FluA H3N2 PB2 241–741) (Influenza A virus (A/Udorn/307/1972(H3N2)), UniProt Q67296); assay: biochemical; format: binding, influenza A/Udorn/307/1972(H3N2)
# [2] = biological target: PB2long (Influenza A virus (A/Udorn/307/1972(H3N2)), UniProt Q67296); assay: biochemical; format: binding, influenza A/Udorn/307/1972(H3N2)
# [3] = biological target: PB2cap (Influenza A virus (A/Udorn/307/1972(H3N2)), UniProt Q67296); assay: biochemical; format: binding, influenza A/Udorn/307/1972(H3N2)
# Chain of PB2cap (Influenza A virus (A/Udorn/307/1972(H3N2)), UniProt Q67296) (Q67296 309-483 limits assumed): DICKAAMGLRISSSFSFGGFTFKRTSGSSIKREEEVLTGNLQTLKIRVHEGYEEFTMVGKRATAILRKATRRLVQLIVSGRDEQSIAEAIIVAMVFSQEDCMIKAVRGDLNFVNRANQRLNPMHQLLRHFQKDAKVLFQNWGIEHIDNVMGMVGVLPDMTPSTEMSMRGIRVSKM
# [4] = tested on: A/H3N2/Udorn/72 PB2, PB1, PA, NP replicon (WT); assay: cells; format: cell-based, influenza A/H3N2/Udorn/72 in 293 T cells; settings: Influenza A virus, H3N2, HEK-293T, 48 h, read-out: Replicon EC50, WT
# Chain of PB2long (Influenza A virus (A/Udorn/307/1972(H3N2)), UniProt Q67296) (Q67296 241-741 limits assumed): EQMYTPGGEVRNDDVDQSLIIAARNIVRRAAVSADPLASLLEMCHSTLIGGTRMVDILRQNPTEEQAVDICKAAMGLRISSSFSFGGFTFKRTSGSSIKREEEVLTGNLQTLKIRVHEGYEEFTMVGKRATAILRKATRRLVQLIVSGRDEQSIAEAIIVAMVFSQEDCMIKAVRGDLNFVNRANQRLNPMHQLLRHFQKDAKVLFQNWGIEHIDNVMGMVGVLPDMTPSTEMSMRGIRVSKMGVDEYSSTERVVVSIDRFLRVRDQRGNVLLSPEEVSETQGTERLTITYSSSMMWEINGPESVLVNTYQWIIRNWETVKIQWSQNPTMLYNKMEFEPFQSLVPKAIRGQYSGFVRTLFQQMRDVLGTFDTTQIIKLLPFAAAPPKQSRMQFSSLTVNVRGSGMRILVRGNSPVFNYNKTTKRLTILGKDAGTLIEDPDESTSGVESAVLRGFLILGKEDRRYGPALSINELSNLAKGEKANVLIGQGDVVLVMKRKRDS
# Chain of influenza A PB2long (FluA H3N2 PB2 241–741) (Influenza A virus (A/Udorn/307/1972(H3N2)), UniProt Q67296) (Q67296 241-741 limits assumed): as above
compound,measurement,setting,value
O=C(O)[C@H]1C2CCC(CC2)[C@@H]1Nc1nc(-c2c[nH]c3ncc(F)cc23)ncc1F [VX-787],Kd,[1],0.67 nM
same,Kd,[2],6.7 pM
same,kon,"[2]; read-out: ka (association rate), PB2long",2.9e+06 M⁻¹ s⁻¹
same,koff,"[2]; read-out: kd (dissociation rate), PB2long",2e-05 s⁻¹
same,Kd,[3],78 nM
same,kon,"[3]; read-out: ka (association rate), PB2cap",59000 M⁻¹ s⁻¹
same,koff,"[3]; read-out: kd (dissociation rate), PB2cap",0.0046 s⁻¹
same,EC50,[4],3.5 nM

# — article PMC5571044 (Scientific Reports, 2017)
